ChEMBL document CHEMBL4028801, “A multifactorial approach to hepatobiliary transporter assessment enables improved therapeutic compound development” (Toxicol Sci, 2013)
Positions of bridges follow the written chain, without caps; N, C: chain ends. Non-standard residues stand in square brackets, D forms with d. Residues, ends and D or L forms follow the SMILES beside them. hArg = N=C(N)NCCCC[C@H](N)C(=O)O; Mpa = O=C(O)CCS

Assays:
Bile salt export pump = Bile salt export pump (Homo sapiens, UniProt O95342); assay: Inhibition of human BSEP overexpressed in Sf9 cell membrane vesicles assessed as uptake of [3H]-taurocholate in presence of ATP measured after 15 to 20 mins by membrane vesicle transport assay; type: ADME, cell-based
[1] = target: ATP-binding cassette sub-family C member 2 (Homo sapiens, UniProt Q92887); assay: Inhibition of human MRP2 overexpressed in Sf9 cell membrane vesicles assessed as uptake of [3H]-estradiol-17beta-D-glucuronide in presence of ATP and GSH measured after 20 mins by membrane vesicle transport assay
[2] = target: T1, ATP-binding cassette sub-family C member 4 (Homo sapiens, UniProt O15439); assay: Inhibition of human MRP4 overexpressed in Sf9 cell membrane vesicles assessed as uptake of [3H]-estradiol-17beta-D-glucuronide in presence of ATP and GSH measured after 20 mins by membrane vesicle transport assay; type: ADME, cell-based
T1 sequence (O15439 whole entry): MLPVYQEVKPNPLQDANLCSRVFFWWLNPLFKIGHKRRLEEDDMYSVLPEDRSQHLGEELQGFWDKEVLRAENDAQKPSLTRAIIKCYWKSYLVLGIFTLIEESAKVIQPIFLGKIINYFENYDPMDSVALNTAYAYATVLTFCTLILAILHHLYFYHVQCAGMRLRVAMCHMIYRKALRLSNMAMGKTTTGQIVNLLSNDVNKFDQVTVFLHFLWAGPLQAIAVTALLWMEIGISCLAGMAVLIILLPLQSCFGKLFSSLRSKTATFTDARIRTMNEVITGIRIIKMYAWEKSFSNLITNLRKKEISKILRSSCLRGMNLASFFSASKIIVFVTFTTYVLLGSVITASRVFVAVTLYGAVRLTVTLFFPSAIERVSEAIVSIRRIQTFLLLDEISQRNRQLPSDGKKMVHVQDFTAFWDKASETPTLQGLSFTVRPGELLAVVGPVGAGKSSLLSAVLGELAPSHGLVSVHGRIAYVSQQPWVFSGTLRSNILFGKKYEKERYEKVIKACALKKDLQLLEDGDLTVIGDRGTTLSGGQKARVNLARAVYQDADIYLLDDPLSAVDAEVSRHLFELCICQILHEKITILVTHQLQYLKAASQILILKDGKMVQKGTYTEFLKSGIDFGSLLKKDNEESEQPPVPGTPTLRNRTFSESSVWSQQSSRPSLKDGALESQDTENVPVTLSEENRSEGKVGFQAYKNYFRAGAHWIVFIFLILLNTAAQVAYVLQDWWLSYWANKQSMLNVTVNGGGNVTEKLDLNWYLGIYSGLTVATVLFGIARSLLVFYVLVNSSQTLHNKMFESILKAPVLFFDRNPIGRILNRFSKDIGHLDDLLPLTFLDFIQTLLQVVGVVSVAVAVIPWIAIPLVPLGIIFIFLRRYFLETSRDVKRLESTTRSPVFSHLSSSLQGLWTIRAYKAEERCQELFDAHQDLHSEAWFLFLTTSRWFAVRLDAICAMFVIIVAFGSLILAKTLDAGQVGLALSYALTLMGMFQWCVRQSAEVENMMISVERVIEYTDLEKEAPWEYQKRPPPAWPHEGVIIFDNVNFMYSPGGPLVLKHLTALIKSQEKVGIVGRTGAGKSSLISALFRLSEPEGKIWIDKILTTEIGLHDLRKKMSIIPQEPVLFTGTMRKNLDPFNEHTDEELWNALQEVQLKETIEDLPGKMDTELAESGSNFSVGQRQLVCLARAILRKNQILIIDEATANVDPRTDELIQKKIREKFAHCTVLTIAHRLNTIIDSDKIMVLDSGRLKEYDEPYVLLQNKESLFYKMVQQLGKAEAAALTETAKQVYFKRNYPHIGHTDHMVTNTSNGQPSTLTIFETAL

[3] = target: ATP-binding cassette sub-family C member 3 (Homo sapiens, UniProt O15438); assay: Inhibition of human MRP3 overexpressed in Sf9 insect cell membrane vesicles assessed as uptake of [3H]-estradiol-17beta-D-glucuronide in presence of ATP and GSH measured after 10 mins by membrane vesicle transport assay; type: ADME, cell-based
Chain of ATP-binding cassette sub-family C member 3 (O15438 whole entry): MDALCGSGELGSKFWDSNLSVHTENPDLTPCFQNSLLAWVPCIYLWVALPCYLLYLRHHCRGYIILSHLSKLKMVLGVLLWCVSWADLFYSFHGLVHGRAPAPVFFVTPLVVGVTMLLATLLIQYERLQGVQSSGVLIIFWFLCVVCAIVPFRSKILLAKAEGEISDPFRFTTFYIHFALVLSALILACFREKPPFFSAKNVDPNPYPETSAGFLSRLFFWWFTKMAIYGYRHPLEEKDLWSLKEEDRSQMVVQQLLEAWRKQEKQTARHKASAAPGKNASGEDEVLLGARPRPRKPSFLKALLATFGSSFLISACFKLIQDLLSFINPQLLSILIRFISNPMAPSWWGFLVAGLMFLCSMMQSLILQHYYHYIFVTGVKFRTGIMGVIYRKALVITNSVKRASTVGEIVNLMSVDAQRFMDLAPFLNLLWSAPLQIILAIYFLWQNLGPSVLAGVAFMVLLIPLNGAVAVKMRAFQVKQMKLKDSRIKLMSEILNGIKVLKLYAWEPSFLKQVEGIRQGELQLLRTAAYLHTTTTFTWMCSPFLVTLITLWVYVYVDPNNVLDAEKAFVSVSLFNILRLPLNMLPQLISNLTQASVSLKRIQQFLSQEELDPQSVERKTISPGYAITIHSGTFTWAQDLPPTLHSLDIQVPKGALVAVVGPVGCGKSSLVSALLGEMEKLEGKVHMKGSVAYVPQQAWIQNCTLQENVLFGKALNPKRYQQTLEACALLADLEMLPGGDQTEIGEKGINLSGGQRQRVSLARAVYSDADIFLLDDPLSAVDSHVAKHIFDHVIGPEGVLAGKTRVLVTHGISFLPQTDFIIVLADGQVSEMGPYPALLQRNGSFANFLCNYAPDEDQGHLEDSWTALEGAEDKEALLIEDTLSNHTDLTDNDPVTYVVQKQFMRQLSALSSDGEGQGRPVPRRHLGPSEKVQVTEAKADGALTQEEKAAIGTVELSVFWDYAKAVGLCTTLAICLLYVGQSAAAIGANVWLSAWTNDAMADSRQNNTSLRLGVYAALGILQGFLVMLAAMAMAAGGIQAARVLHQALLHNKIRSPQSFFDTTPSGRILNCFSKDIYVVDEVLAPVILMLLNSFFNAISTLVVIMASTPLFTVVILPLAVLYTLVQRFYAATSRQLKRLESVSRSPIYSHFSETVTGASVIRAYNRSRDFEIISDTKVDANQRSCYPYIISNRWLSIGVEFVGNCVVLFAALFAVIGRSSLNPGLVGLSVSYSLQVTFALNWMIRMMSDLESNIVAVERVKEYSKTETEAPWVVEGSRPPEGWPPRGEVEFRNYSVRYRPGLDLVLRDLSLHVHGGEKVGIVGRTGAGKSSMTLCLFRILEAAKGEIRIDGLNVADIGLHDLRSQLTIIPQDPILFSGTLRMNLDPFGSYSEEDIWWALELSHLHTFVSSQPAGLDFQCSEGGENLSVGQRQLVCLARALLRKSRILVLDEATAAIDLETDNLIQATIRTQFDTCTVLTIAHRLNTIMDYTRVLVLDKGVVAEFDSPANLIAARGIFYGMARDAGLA

Chain of Bile salt export pump (O95342 whole entry): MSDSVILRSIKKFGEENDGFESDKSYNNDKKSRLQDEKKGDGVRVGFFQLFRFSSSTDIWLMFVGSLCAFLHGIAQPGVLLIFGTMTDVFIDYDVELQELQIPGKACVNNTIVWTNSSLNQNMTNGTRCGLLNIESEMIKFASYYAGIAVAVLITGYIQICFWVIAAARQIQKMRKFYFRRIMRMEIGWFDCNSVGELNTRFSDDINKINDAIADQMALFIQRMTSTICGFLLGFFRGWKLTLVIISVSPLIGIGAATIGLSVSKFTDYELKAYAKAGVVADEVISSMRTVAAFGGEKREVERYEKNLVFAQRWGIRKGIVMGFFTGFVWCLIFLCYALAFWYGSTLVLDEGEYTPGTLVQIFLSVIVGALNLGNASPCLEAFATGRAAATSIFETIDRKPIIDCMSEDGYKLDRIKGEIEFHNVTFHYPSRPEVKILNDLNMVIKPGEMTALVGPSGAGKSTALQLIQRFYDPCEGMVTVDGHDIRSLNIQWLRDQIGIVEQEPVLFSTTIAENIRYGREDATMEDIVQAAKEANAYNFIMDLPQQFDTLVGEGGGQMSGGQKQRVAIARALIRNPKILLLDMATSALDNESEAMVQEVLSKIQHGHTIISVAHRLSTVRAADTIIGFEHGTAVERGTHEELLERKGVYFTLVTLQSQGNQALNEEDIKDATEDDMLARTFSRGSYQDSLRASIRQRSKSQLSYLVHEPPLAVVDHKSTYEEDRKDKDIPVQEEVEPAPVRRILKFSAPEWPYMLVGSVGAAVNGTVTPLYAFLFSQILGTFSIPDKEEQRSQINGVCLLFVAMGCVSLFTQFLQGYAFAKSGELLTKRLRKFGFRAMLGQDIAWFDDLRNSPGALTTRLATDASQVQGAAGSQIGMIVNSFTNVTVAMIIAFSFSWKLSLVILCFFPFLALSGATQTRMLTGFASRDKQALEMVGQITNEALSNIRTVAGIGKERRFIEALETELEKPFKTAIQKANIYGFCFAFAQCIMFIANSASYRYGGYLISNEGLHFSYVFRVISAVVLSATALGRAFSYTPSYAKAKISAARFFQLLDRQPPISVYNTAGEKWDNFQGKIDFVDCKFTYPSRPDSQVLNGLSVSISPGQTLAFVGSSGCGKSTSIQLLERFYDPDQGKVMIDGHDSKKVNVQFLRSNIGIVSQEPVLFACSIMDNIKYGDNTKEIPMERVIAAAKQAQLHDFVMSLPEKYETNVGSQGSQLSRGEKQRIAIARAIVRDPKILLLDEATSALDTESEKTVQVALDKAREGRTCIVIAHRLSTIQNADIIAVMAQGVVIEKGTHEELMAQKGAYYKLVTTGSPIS
Chain of ATP-binding cassette sub-family C member 2 (Q92887 whole entry): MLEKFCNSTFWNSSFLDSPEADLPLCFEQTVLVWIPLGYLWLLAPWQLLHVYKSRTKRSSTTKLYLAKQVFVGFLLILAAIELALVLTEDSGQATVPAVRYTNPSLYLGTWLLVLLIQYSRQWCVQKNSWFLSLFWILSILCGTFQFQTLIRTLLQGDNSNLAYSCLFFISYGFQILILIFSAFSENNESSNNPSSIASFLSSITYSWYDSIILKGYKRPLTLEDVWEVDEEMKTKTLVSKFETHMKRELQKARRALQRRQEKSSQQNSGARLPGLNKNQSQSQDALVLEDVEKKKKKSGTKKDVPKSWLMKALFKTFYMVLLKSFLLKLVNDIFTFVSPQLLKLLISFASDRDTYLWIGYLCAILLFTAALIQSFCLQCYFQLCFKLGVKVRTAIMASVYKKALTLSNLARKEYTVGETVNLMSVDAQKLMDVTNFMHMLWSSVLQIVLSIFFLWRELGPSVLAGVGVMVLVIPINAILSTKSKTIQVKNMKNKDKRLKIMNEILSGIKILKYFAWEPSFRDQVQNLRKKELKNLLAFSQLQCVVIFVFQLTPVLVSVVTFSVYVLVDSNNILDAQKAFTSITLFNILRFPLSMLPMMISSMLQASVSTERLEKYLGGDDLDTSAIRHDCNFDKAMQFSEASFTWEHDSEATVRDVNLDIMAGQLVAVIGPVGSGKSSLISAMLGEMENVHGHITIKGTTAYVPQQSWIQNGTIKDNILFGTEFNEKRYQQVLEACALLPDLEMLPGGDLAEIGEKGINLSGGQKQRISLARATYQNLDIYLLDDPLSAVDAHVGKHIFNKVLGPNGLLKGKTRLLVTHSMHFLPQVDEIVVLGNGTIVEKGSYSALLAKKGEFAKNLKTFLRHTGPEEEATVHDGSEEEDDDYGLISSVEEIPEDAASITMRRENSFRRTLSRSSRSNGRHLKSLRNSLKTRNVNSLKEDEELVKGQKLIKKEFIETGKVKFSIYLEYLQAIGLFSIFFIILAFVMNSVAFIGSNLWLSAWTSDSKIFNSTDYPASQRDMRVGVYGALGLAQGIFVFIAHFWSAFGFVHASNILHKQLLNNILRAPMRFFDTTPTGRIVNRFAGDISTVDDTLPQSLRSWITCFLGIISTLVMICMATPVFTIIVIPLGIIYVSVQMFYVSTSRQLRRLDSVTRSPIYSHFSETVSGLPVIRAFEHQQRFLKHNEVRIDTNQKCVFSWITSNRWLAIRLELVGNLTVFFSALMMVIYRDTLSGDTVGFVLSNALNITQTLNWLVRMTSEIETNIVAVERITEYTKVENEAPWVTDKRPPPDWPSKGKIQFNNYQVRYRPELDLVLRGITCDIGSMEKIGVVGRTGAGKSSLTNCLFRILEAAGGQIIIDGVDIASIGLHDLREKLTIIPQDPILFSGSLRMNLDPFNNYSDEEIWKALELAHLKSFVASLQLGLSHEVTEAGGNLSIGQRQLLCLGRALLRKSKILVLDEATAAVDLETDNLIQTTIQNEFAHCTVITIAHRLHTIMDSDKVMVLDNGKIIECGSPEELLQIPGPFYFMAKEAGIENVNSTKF

| Structure (SMILES) | IC50 (Bile salt export pump) [µM] | IC50 [1] [µM] | IC50 [2] [µM] | IC50 [3] [µM] |
| --- | --- | --- | --- | --- |
| CCCCC(=O)N(Cc1ccc(-c2ccccc2-c2nnn[nH]2)cc1)[C@H](C(=O)O)C(C)C | > 133 | > 133 | > 133 | > 133 |
| O=C(CC(=O)C(F)(F)F)c1cccs1 | > 133 | > 133 | > 133 | > 133 |
| Cc1ccc(-c2nc3ccc(C)cn3c2CC(=O)N(C)C)cc1 | > 133 | > 133 | > 133 | > 133 |
| COc1ccccc1N1CCN(CCCNc2cc(=O)n(C)c(=O)n2C)CC1 | > 133 | > 133 | > 133 | > 133 |
| c1cnc2cc3c(cc2n1)[C@@H]1CNC[C@H]3C1 | > 133 | > 133 | > 133 | > 133 |
| Nc1nc(N)c2nc(-c3ccccc3)c(N)nc2n1 | > 133 | > 133 | > 133 | > 133 |
| NCCCC[C@H](NC(=O)[C@@H]1CCCN1C(=O)[C@@H]1CSSC[C@H](NC(=O)CNC(=O)CNC(=O)CN)C(=O)N[C@@H](Cc2ccc(O)cc2)C(=O)N[C@@H](Cc2ccccc2)C(=O)N[C@@H](CCC(N)=O)C(=O)N[C@@H](CC(N)=O)C(=O)N1)C(=O)NCC(N)=O (H-GGGCYFQNCPKG-NH2; disulfide 4-9) | > 133 | > 133 | > 133 | > 133 |
| N=C(N)NCCCC[C@@H]1NC(=O)CCSSC[C@@H](C(N)=O)NC(=O)[C@@H]2CCCN2C(=O)[C@H](Cc2c[nH]c3ccccc23)NC(=O)[C@H](CC(=O)O)NC(=O)CNC1=O ([Mpa][hArg]GDWPC-NH2; disulfide 1-7) | > 133 | > 133 | > 133 | > 133 |
| S=C=Nc1cccc2ccccc12 [1-NAPHTHYLISOTHIOCYANATE] | 69 | > 133 | > 133 | > 133 |
| C[C@]12CC[C@H](O)CC1=CC[C@@H]1[C@@H]2CC[C@]2(C)C(c3cccnc3)=CC[C@@H]12 [ABIRATERONE] | > 133 | > 133 | > 133 | > 133 |
| C[C@H]1O[C@H](O[C@H]2[C@H](O)[C@@H](O)[C@@H](O[C@H]3[C@H](O)[C@@H](O)C(O)O[C@@H]3CO)O[C@@H]2CO)[C@H](O)[C@@H](O)[C@@H]1N[C@H]1C=C(CO)[C@@H](O)[C@H](O)[C@H]1O (stereo partly specified) [ACARBOSE] | > 133 | > 133 | > 133 | > 133 |
| CCN(CC)CCNC(=O)c1ccc(NC(C)=O)cc1 [ACECAINIDE] | > 133 | > 133 | > 133 | > 133 |
| CC(=O)Nc1ccc(O)cc1 [ACETAMINOPHEN] | > 133 | > 133 | > 133 | > 133 |
| Cc1cnc(C(=O)O)c[n+]1[O-] [ACIPIMOX] | > 133 | > 133 | > 133 | > 133 |
| Nc1nc2c(ncn2COCCO)c(=O)[nH]1 [ACYCLOVIR] | > 133 | > 133 | > 133 | > 133 |
| COc1ccc2cccc(CCNC(C)=O)c2c1 [AGOMELATINE] | > 133 | > 133 | > 133 | > 133 |
| CCCSc1ccc2nc(NC(=O)OC)[nH]c2c1 [ALBENDAZOLE] | > 133 | > 133 | > 133 | > 133 |
| Oc1ncnc2[nH]ncc12 [ALLOPURINOL] | > 133 | > 133 | > 133 | > 133 |
| C=CCc1ccccc1OCC(O)CNC(C)C (stereo unspecified) [ALPRENOLOL] | > 133 | > 133 | > 133 | > 133 |
| C[C@H]1CN(C[C@H](Cc2ccccc2)C(=O)NCC(=O)O)CC[C@@]1(C)c1cccc(O)c1 [ALVIMOPAN] | > 133 | > 133 | > 133 | > 133 |

| Structure (SMILES) | IC50 (Bile salt export pump) [µM] | IC50 [1] [µM] | IC50 [2] [µM] | IC50 [3] [µM] |
| --- | --- | --- | --- | --- |
| NCC[C@H](O)C(=O)N[C@@H]1C[C@H](N)[C@@H](O[C@H]2O[C@H](CN)[C@@H](O)[C@H](O)[C@H]2O)[C@H](O)[C@H]1O[C@H]1O[C@H](CO)[C@@H](O)[C@H](N)[C@H]1O [AMIKACIN] | > 133 | > 133 | > 133 | > 133 |
| CCC1(c2ccc(N)cc2)CCC(=O)NC1=O (stereo unspecified) [AMINOGLUTETHIMIDE] | > 133 | > 133 | > 133 | > 133 |
| Cn1c(=O)c2[nH]cnc2n(C)c1=O [AMINOPHYLLINE] | > 133 | > 133 | 131 | > 133 |
| CCN1CCCC1CNC(=O)c1cc(S(=O)(=O)CC)c(N)cc1OC (stereo unspecified) [AMISULPRIDE] | > 133 | > 133 | > 133 | > 133 |
| CC(=O)Nc1ccc(/C=N/NC(N)=S)cc1 [AMITHIOZONE] | > 133 | > 133 | > 133 | > 133 |
| CN(C)CCC=C1c2ccccc2CCc2ccccc21 [AMITRIPTYLINE] | > 133 | > 133 | > 133 | > 133 |
| CC(C)c1ccc2oc3nc(N)c(C(=O)O)cc3c(=O)c2c1 [AMLEXANOX] | 104 | > 133 | 2.2 | > 133 |
| CCOC(=O)C1=C(COCCN)NC(C)=C(C(=O)OC)C1c1ccccc1Cl (stereo unspecified) [AMLODIPINE] | > 133 | > 133 | > 133 | > 133 |
| Clc1ccc2c(c1)C(N1CCNCC1)=Nc1ccccc1O2 [AMOXAPINE] | > 133 | > 133 | > 133 | > 133 |
| CC1(C)S[C@@H]2[C@H](NC(=O)[C@H](N)c3ccc(O)cc3)C(=O)N2[C@H]1C(=O)O [AMOXICILLIN] | > 133 | > 133 | > 133 | > 133 |
| COc1cc(NS(C)(=O)=O)ccc1Nc1c2ccccc2nc2ccccc12 [AMSACRINE] | > 133 | > 133 | 7.43 | > 133 |
| CC(C)(C#N)c1cc(Cn2cncn2)cc(C(C)(C)C#N)c1 [ANASTROZOLE] | > 133 | > 133 | > 133 | > 133 |
| O=C1c2c(O)cccc2Cc2cccc(O)c21 [ANTHRALIN] | > 133 | > 133 | > 133 | > 133 |
| Cc1cc(=O)n(-c2ccccc2)n1C [ANTIPYRINE] | > 133 | > 133 | > 133 | > 133 |
| CN1CCc2cccc3c2[C@H]1Cc1ccc(O)c(O)c1-3 [APOMORPHINE] | > 133 | > 133 | > 133 | > 133 |
| C[C@@H](O[C@H]1OCCN(Cc2n[nH]c(=O)[nH]2)[C@H]1c1ccc(F)cc1)c1cc(C(F)(F)F)cc(C(F)(F)F)c1 [APREPITANT] | > 133 | > 133 | > 133 | > 133 |
| C[C@@H]1CC[C@H]2[C@@H](C)C(=O)O[C@@H]3O[C@@]4(C)CC[C@@H]1[C@]32OO4 [ARTEMISININ] | > 133 | > 133 | > 133 | > 133 |
| C[C@H]1[C@H](OC(=O)CCC(=O)O)O[C@@H]2O[C@@]3(C)CC[C@H]4[C@H](C)CC[C@@H]1[C@@]24OO3 [ARTESUNATE] | > 133 | > 133 | > 133 | > 133 |
| CC(=O)Oc1ccccc1C(=O)O [ASPIRIN] | > 133 | > 133 | > 133 | > 133 |
